Data on four compounds can be found in PMC10392026, “Vacuolar Phosphate Transporter1 (VPT1) may transport sugar in response to soluble sugar status of grape fruits” (Horticulture Research, 2022).

Format in all cases: cell-based
One test concerns the target T1, VvVPT1 (Vitis vinifera, UniProt D7TW83).
T1 construct: gene VIT_02s0025g04540; full-length CDS (698 residues implied by VvVPT1_155-698) in pDR195, expressed in yeast hexose transport mutant EBY.VW4000
Description: fluorescent uptake in yeast, confocal microscopy. Conditions: 60 uM 2-NBDG, 30 °C, 3 h; EBY.VW4000 yeast.

The target of a further test is T2, AtVPT1 (Arabidopsis thaliana, UniProt F4I0G7).
T2 construct: gene VPT1; full-length CDS (708 residues implied by AtVPT1_162-708) in pRS426, expressed in yeast Pi uptake mutant YP101
T2 sequence (F4I0G7 1-708): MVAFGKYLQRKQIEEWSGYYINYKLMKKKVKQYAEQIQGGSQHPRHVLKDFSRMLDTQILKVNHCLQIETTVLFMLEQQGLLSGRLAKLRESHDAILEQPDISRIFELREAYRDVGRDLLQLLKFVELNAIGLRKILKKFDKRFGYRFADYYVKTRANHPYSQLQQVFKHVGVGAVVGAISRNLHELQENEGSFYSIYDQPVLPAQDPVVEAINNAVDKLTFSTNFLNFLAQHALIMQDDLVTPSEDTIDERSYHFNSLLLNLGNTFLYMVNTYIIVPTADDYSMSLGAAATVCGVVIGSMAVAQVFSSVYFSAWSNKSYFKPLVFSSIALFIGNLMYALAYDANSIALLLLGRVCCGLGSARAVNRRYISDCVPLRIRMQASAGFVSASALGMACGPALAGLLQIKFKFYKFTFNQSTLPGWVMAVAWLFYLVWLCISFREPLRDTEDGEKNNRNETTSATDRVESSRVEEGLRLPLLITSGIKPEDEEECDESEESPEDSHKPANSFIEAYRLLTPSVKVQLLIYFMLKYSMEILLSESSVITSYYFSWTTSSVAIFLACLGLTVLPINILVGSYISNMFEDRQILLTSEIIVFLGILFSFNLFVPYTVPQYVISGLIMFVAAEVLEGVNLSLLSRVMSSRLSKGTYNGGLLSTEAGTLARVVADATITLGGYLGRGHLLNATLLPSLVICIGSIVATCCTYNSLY
The following applies: 1-20 mM Pi, 30 °C, 5 d; indirect growth read-out.

Test [1] addresses T3, FaVPT1 (Fragaria x ananassa, UniProt Z9SEB9UZJ4).
T3 construct: full-length CDS (696 residues implied by FaVPT1_147-696) in pDR195, expressed in yeast sucrose transport mutant SUSY7/ura3
T3 sequence (Z9SEB9UZJ4 1-696): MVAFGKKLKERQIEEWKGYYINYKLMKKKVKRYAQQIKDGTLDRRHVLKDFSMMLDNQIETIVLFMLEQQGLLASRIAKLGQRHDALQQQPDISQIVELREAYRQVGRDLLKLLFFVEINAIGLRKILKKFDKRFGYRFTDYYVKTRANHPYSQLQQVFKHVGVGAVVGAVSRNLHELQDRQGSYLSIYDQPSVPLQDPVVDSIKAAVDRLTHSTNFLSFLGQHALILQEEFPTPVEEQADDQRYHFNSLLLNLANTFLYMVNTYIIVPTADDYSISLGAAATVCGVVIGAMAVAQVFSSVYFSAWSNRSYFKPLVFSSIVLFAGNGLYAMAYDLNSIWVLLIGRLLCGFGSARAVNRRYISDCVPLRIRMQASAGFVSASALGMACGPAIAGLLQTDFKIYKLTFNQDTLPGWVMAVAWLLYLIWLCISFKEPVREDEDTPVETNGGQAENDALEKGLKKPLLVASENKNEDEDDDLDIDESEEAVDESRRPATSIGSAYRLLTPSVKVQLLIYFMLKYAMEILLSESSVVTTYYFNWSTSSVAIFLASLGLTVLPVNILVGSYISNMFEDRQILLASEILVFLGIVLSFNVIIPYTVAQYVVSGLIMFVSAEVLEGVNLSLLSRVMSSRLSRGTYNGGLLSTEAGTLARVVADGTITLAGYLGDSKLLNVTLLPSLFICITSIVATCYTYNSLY
Description: yeast growth complementation (SUSY7/ura3). The following applies: […] (w/v) Suc as sole carbon source, […] °C; indirect growth read-out.

For test [2], the target named is T3, FaVPT1. Description: fluorescent uptake in yeast, confocal microscopy. The following applies: […] esculin, […] Na2HPO4 pH […] °C, […] h; SUSY7/ura3 yeast.

T1 sequence (D7TW83 entry or part of it): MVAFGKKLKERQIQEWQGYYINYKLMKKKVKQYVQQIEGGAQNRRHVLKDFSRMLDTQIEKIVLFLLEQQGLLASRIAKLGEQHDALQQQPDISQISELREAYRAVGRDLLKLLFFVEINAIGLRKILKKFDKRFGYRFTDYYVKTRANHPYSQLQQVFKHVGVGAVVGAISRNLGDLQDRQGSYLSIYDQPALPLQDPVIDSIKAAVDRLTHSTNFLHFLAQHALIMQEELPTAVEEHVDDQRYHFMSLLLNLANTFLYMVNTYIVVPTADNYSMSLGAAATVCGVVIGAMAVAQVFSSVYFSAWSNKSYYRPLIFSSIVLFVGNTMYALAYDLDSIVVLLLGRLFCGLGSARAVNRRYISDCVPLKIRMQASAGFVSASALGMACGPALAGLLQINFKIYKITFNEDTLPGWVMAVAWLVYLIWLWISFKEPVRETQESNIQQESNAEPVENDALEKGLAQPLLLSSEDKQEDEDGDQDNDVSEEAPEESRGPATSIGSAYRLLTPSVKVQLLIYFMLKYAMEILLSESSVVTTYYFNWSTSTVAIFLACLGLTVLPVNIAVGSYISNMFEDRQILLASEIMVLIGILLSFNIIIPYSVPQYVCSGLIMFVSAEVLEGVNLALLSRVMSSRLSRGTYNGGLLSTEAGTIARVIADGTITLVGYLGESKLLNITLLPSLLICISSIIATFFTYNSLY

On to `O=[N+]([O-])c1ccc(N[C@H]2C(O)O[C@H](CO)[C@@H](O)[C@@H]2O)c2nonc12` (stereo partly drawn) [2-NBDG, 2-[N-(7-nitrobenz-2-oxa-1,3-diazol-4-yl)amino]-2-deoxy-d-Glc], for which the “fluorescent uptake in yeast, confocal microscopy” value at VvVPT1 is recorded as “The fluorescence in VvVPT1-expressed yeast strain was stronger than that of the WT”.

Consider `O=P(O)(O)O` [Pi], for which the “yeast growth complementation (YP101)” value on AtVPT1 is on record as “The yeast mutant transformed with FaVPT1, VvVPT1, or AtVPT1 restored growth”.

In the case of `OC[C@H]1O[C@@](CO)(O[C@H]2O[C@H](CO)[C@@H](O)[C@H](O)[C@H]2O)[C@@H](O)[C@@H]1O` [Suc], the “yeast growth complementation (SUSY7/ura3)” value on FaVPT1 [1] is recorded as “only FaVPT1 has sucrose transport capacity”.

Turning to `O=c1ccc2cc(O[C@@H]3O[C@H](CO)[C@@H](O)[C@H](O)[C@H]3O)c(O)cc2o1` [esculin], the “fluorescent uptake in yeast, confocal microscopy” value on FaVPT1 [2] is “the FaVPT1-expressed yeast strain could take up both esculin and sucrose”.
